In ChEMBL document CHEMBL1201862, “PubChem BioAssay data set” (2004):
Calls of active or inactive are those of the source.

Tests used:
[1] = molecular target: T1, Type-1 angiotensin II receptor (Homo sapiens, UniProt P30556); assay: agonist activity at AGTR1 – cell-based, uHTS hits, selectivity assay for APJ receptor agonist project, dose response (AID 488865); format: functional;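 also: beta-arrestin recruitment to AT1 measured by enzyme fragment complementation luminescence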
T1 sequence (P30556 whole entry): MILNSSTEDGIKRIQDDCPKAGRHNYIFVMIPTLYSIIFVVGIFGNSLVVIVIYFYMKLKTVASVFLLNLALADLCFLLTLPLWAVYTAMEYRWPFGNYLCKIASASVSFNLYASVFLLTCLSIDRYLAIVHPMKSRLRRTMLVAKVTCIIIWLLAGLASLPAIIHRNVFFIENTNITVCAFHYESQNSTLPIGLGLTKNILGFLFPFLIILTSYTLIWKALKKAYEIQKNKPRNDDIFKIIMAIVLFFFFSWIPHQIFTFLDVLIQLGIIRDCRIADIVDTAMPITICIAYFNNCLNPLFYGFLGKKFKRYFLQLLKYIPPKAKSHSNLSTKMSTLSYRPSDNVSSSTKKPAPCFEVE

[2] = molecular target: Dual specificity protein phosphatase 3 (Homo sapiens, UniProt P51452); assay: SAR VHR1 Fluorescent Assay for In Vitro dose response studies Set 2. [Related pubchem assays (depositor defined):AID1654, AID1661, AID1878]; format: functional
Dual specificity protein phosphatase 3, sequence (P51452 whole entry): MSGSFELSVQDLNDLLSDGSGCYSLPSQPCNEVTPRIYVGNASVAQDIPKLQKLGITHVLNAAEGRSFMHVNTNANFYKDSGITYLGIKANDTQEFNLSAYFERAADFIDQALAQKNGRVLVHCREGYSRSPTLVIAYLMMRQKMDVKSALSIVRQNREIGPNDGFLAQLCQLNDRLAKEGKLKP

[3] = molecular target: T2, Tyrosine-protein phosphatase non-receptor type 7 (Homo sapiens, UniProt P35236); assay: SAR analysis of chemical inhibitors of HePTP using a Fluorescent assay - Set 2. [Related pubchem assays (depositor defined):AID1059, AID1077, AID1661, AID2085, AID521]; format: functional
T2 sequence (P35236 whole entry): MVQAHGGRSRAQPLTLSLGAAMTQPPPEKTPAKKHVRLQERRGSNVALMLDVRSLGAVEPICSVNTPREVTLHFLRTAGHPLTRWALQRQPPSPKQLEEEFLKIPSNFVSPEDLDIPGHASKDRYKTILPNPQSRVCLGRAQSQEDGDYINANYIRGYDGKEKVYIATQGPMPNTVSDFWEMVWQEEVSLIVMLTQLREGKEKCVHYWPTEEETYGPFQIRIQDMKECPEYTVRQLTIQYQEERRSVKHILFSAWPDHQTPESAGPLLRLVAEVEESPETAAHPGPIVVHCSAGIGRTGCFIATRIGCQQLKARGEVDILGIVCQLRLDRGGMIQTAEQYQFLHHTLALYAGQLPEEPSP

[4] = molecular target: T3, Streptokinase A (Streptococcus pyogenes serotype M1, UniProt P10520); assay: viability-normalized secreted streptokinase activity reduction – plasminogen activation absorbance, OD405, dose response (AID 1914); format: functional, Streptococcus pyogenes M1 GAS;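 also: secreted streptokinase activity via plasminogen activation per viability signal from cell pellet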
T3 sequence (P10520 whole entry): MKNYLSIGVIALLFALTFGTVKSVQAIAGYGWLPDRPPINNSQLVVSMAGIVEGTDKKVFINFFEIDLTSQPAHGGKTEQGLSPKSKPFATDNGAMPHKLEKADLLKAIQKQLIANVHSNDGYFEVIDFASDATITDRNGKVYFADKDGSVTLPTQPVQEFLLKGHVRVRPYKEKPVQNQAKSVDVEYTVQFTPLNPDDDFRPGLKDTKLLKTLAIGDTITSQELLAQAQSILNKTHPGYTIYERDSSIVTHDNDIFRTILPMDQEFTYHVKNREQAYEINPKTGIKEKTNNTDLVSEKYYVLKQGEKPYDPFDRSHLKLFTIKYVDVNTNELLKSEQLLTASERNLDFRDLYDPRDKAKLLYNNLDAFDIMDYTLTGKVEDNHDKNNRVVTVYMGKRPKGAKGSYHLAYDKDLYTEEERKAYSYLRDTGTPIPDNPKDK

[5] = molecular target: T4, Short transient receptor potential channel 4 (Mus musculus, UniProt Q9QUQ5); assay: potentiation of DAMGO-evoked TRPC4 calcium signal – cell-based, HEK293 TRPC4/mu-opioid, Fluo-4 calcium, EC20 DAMGO, dose response (AID 434941); format: functional
T4 sequence (Q9QUQ5 whole entry): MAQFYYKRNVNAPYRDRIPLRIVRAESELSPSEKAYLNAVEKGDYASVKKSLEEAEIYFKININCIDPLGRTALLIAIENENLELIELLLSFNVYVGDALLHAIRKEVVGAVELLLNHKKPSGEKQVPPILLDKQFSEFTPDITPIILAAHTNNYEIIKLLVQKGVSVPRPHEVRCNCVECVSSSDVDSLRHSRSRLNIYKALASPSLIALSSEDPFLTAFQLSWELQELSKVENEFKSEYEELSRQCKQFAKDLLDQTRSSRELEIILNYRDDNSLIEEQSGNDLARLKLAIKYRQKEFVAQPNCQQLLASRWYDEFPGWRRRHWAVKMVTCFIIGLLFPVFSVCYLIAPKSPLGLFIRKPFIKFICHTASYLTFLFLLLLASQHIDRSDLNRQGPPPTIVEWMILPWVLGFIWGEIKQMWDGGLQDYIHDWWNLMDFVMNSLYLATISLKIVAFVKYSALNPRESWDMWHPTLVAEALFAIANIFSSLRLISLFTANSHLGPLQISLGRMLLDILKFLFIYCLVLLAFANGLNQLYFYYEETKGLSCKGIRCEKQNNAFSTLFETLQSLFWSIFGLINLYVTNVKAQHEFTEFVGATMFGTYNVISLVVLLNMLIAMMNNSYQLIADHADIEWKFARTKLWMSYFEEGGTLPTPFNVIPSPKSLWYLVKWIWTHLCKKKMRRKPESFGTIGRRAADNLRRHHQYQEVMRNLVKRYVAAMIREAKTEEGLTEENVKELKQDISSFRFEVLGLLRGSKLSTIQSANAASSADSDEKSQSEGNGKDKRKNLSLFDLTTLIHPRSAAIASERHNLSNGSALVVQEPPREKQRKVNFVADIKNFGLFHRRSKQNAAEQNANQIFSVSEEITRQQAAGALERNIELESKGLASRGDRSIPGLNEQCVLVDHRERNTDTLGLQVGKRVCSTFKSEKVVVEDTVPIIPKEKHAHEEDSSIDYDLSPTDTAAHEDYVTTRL

[6] = tested on: Streptococcus; assay: GAS UMAA2166 growth inhibition – luminescence, BacTiterGlo, counter-screen for streptokinase expression inhibitor project, dose response (AID 1915); format: functional, organism-based;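 also: potency for reduction of bacterial viability or growth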
[7] = molecular target: T4, Short transient receptor potential channel 4; assay: calcium entry via TRPC4 opening agents – cell-based, HEK293 TRPC4/mu-opioid, Fluo-4 calcium, dose response (AID 434937); format: functional
[8] = molecular target: T5, Protein skinhead-1 (Caenorhabditis elegans, UniProt P34707); format: functional
T5 sequence (P34707 whole entry): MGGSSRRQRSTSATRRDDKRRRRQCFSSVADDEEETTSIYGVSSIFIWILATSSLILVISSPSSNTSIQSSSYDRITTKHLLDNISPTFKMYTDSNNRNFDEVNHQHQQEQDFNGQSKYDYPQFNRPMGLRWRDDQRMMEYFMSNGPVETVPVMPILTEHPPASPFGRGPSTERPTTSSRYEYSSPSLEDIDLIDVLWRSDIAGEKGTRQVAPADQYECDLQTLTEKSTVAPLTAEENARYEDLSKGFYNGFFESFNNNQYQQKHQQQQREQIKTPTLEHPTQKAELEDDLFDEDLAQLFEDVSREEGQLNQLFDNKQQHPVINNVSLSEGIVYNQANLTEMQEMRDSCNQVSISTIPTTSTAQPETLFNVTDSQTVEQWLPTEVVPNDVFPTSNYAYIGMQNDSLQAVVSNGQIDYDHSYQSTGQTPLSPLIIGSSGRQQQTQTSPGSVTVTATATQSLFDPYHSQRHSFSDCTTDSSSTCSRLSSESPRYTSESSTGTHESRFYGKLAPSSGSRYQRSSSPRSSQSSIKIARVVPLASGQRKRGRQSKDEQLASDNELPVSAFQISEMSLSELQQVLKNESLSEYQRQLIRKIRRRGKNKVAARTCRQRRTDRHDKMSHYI

[9] = tested on: Streptococcus sp. 'group A'; assay: Streptococcus pyogenes SK(-)GAS viability under kanamycin – luminescence, BacTiterGlo, confirmation, counter-screen for streptokinase expression inhibitor project, dose response (AID 1900); format: functional, organism-based
[10] = molecular target: T6, Coagulation factor XII (Homo sapiens, UniProt P00748); assay: activated coagulation factor XII inhibitor potency, concentration-effect curve, cell-free (AID 716); format: functional
T6 sequence (P00748 whole entry): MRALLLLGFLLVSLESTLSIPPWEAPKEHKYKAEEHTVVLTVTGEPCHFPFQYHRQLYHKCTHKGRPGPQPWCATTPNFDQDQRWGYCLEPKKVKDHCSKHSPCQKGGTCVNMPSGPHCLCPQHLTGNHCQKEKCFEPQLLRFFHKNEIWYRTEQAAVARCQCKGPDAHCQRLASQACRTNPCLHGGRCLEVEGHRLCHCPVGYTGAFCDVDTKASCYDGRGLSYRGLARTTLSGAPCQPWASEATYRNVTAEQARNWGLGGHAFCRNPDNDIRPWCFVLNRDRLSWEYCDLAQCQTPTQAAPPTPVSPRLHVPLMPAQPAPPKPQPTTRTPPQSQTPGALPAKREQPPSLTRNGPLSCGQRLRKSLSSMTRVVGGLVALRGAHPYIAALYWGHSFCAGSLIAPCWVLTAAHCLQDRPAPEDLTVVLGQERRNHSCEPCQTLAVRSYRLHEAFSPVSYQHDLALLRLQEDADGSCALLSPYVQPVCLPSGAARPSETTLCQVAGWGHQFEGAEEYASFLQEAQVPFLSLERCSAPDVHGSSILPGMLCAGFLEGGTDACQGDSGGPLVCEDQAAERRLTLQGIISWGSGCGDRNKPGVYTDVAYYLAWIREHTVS

[11] = molecular target: Mu-type opioid receptor (Homo sapiens, UniProt P35372); assay: SAR Analysis of Antagonists of the MOR Receptor using an Image-Based Assay - Set 3. [Related pubchem assays (depositor defined):AID1777, AID1785, AID1786, AID1966, AID2133, AID2136, AID2284, AID2285, AID2420]; format: functional
Mu-type opioid receptor, sequence (P35372 whole entry): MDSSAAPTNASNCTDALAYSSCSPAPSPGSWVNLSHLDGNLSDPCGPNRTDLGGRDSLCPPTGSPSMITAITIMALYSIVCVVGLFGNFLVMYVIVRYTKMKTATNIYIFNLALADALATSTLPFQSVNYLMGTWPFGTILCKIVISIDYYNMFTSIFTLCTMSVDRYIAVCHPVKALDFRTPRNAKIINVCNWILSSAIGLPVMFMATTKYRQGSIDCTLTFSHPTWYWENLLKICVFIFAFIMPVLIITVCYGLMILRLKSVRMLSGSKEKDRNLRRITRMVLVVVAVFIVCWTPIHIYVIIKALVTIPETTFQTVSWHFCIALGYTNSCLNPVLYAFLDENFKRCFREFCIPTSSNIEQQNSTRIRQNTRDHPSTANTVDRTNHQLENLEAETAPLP

[12] = molecular target: Delta-type opioid receptor (Homo sapiens, UniProt P41143); assay: SAR Analysis of Antagonists of the DOR Receptor using an Image-Based Assay - Set 3. [Related pubchem assays (depositor defined):AID1777, AID1785]; format: functional;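 also: U2OS cells expressing DOR1 and beta-arrestin GFP stimulated with 100 nM SNC80; imaging of GFP-tagged beta-arrestin moving into spots after receptor activation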
Delta-type opioid receptor, sequence (P41143 whole entry): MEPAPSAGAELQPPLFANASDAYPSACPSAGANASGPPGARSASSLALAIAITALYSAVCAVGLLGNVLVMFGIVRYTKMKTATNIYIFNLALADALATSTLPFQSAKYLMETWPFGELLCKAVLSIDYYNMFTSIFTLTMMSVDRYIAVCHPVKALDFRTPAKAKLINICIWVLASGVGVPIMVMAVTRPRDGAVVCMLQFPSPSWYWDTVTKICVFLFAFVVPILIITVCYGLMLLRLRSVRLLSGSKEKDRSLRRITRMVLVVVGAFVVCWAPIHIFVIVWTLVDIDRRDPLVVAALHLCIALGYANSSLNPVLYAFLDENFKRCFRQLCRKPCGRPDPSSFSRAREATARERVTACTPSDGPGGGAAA

[13] = molecular target: T7, Kappa-type opioid receptor (Homo sapiens, UniProt P41145); assay: SAR analysis of Antagonists of the Kappa Opioid Receptor (KOR) using an Image-Based Assay - Set 3. [Related pubchem assays (depositor defined):AID1777, AID1785]; format: functional
T7 sequence (P41145 whole entry): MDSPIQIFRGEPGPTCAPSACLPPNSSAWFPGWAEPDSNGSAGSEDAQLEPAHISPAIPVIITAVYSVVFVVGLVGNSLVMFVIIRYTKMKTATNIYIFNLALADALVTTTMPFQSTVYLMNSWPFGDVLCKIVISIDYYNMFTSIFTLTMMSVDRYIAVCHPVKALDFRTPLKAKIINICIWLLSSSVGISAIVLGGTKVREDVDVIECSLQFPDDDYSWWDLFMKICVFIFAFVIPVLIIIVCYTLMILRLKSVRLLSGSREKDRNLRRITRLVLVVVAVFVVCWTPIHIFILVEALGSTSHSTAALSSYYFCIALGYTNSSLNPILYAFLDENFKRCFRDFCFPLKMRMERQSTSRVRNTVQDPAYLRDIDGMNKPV

[14] = molecular target: T7, Kappa-type opioid receptor; assay: SAR analysis of small molecule antagonists of the kappa opioid receptor via a luminescent beta-arrestin assay - Set 3. [Related pubchem assays (depositor defined):AID1777, AID1778, AID1785, AID1786, AID1966, AID2133, AID2136, AID2285, AID2495]; format: functional
[15] = tested on: T-cell; assay: loss of vesicle association with mouse CD8+ T cells – mouse 2C CD8+ T cells, flow cytometry, dose response (AID 485284); format: functional
[16] = molecular target: DNA dC->dU-editing enzyme APOBEC-3A (Homo sapiens, UniProt P31941); assay: Dose Response confirmation of small molecule APOBEC3A DNA Deaminase Inhibitors via a fluorescence-based single-stranded DNA deaminase assay. [Related pubchem assays (depositor defined):AID493011, AID493024]; format: functional
DNA dC->dU-editing enzyme APOBEC-3A, sequence (P31941 whole entry): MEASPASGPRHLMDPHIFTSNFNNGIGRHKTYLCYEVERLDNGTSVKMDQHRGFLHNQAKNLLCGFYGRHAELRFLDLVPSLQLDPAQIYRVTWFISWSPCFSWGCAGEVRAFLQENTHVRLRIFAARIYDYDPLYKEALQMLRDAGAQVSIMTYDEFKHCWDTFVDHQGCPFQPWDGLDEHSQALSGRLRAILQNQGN

[17] = DRD fibroblast viability loss – cell-based, non-viral oncogenic, luminescence, dose response (AID 1934); format: functional; details: Homo sapiens
[18] = tested on: BJ; assay: cells; format: functional, cell-based; details: Homo sapiens
[19] = tested on: BJ; assay: BJ-TERT fibroblast viability loss – cell-based, RAS-independent, luminescence, dose response (AID 1933); format: functional; details: Homo sapiens
[20] = molecular target: DNA dC->dU-editing enzyme APOBEC-3G (Homo sapiens, UniProt Q9HC16); format: functional;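 also: Dose-response counterscreen measuring inhibition of APOBEC3G DNA deaminase activity, run while confirming APOBEC3A inhibitors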
DNA dC->dU-editing enzyme APOBEC-3G, sequence (Q9HC16 whole entry): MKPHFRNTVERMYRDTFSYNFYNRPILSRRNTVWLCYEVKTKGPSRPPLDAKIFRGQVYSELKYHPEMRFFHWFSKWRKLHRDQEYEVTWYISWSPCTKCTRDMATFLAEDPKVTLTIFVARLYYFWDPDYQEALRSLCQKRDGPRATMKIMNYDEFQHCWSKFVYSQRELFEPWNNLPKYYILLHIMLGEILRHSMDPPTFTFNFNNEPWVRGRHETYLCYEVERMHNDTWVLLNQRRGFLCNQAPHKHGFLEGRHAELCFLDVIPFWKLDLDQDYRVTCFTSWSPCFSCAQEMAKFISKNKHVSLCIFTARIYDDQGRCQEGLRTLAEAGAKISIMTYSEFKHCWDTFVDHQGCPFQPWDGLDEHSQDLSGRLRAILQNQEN

[21] = HEK-293T viability loss after treatment – luminescence, T-cell screen hits, cytotoxicity control for TCR NF-kB inhibitor project, dose response (AID 489026); format: functional, cell-based;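 also: cells exposed to compound about 14 hours before the viability readout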
[22] = molecular target: FAD-linked sulfhydryl oxidase ALR (Homo sapiens, UniProt P55789); assay: ALR-catalysed DTT oxidation blockers – biochemical, H2O2 detection, luminescence, cherry-pick, dose response (AID 493248)
FAD-linked sulfhydryl oxidase ALR, sequence (P55789 whole entry): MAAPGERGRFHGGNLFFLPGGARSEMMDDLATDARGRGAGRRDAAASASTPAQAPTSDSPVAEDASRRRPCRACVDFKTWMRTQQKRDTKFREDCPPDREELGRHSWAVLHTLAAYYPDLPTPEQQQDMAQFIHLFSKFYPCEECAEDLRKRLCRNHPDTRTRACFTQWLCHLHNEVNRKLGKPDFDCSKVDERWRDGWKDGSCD

[23] = microbe, parasite or virus in culture; format: functional; details: Mycobacterium tuberculosis
[24] = tested on: BJ; assay: BJ-TERT-LT-ST fibroblast viability loss – cell-based, RAS-independent, luminescence, dose response (AID 1935); format: functional; details: Homo sapiens;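 also: BJ fibroblasts immortalized with TERT plus LT and ST oncogenes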

CC1(OC(=O)C2CCCC2)C(=O)C=C2C=C(c3ccsc3)N(C3CCCC3)C=C2C1=O (stereo not given)
EC50 [1]: > 100 µM (inactive)

C=CCn1c(N)c(C(=O)N2CCN(C)CC2)sc1=S
IC50 [2]: 61.2 µM (active)
IC50 [3]: 77.7 µM (active)

COc1cc(/C=C2/SC(=S)N(Cc3ccccc3)C2=O)cc(Cl)c1O
EC50 [4]: > 150 µM (not active)
EC50 [5]: 1.5 µM (active)
EC50 [6]: 5.86 µM (active)
EC50 [7]: 5.31 µM (active)
IC50 [8]: > 100 µM (inactive)
EC50 [9]: 5.2 µM (active)

CCC(c1nnnn1Cc1ccc2c(c1)OCO2)N1CCN(c2ccc(F)cc2)CC1 (stereo not given)
IC50 [8]: > 100 µM (inactive)
IC50 [10]: > 50 µM (inactive)

Cc1ccc(S(=O)(=O)NCc2ccc(C(=O)NCCN(Cc3ccccc3)Cc3ccccc3)cc2)cc1
IC50 [11]: > 32 µM (inactive)
IC50 [12]: > 32 µM (inactive)
IC50 [13]: 7.47 µM (active)
IC50 [14]: 16.2 µM (inactive)

O=C(Cn1cc(C(F)(F)F)cc(Cl)c1=O)NCCc1ccc(Cl)cc1Cl
EC50 [15]: 7.63 µM (active)

CC(C)CC[n+]1ccccc1C=Cc1ccc(N(C)C)cc1
IC50 [16]: 6.84 µM (active)
EC50 [17]: 22.8 µM (inconclusive)
EC50 [18]: 15.5 µM (active)
EC50 [19]: 3.6 µM (active)
IC50 [20]: 19.3 µM (active)
IC50 [21]: > 80 µM (inactive)
AC50 [22]: 1.36 µM (active)
CC50 [23]: > 40 µM (active)
EC50 [24]: > 150 µM (inconclusive)
